# Reference: patent US11414429B2, “Compound or pharmaceutically acceptable salt thereof” (RIKEN, priority 2016, dated 2022)
# pIC50: −log10 of the molar value. Read-outs that look alike come from different tables or passages of the source.
# Tests used:
# tankyrase 1 (TNKS 1) = biological target: T1, tankyrase 1 (TNKS 1) (Homo sapiens, UniProt O95271); experiment: Tankyrase inhibitory activity test (ELISA, self-polyADP ribosylation), tankyrase 1; assay type: biochemical; details: self-polyADP ribosylation
# T1 construct: 1,024-1,327aa; made in house; host or cells: cell-free protein synthesis system
# Experimental: (§1) (Test Example 1) Tankyrase Inhibitory Activity Test
# (§2) For each of the compounds obtained in Examples (the test target compounds), the tankyrase inhibitory activity (an inhibitory activity against tankyrase 1 (TNKS 1) and an inhibitory activity against tankyrase 2 (TNKS 2)) was evaluated by measuring the enzymatic activity of tankyrase 1 and the enzymatic activity of tankyrase 2 by the ELISA technique using self-polyADP ribosylation as an index. First, Flag-tag fusion tankyrase 1 (1,024-1,327aa, SAM+PARP) and tankyrase 2 (613-1, 116aa, ANK5+SAM+PARP) were each synthesized by a cell-free protein synthesis system and diluted with a Tris buffer (50 mM Tris-HCl (pH 8.0), 150 mM NaCl, 10% glycerol). Then, 50 μL of the diluted tankyrase 1 or tankyrase 2 was added to a plate on which the anti-FLAGM 2 monoclonal antibody was immobilized (Anti-FLAG high sensitivity M2 coated plate) (SIGMA Corporation), and was allowed to stand at 4° C. overnight. Thereafter, the plate was washed four times with a PBS buffer containing 0.1% Triton X-100 (PBST buffer).
# (§3) Subsequently, the test target compound diluted with an assay buffer (50 mM Tris-HCl (pH 8.0), 4 mM MgCl2, 0.2 mM DTT) (using DMSO as a control) was added to each well of the plate and was allowed to stand at room temperature for 10 minutes. Thereafter, a biotin-labeled NAD solution (225 μM NAD, 25 μM 6-Biotin-17-NAD (Trevigen Inc.)) was added as a donor substrate and mixed with the resultant test target compound, and the reaction was allowed to proceed at 30° C. for 45 minutes. Instead of the biotin-labeled NAD solution, distilled water was added to blank wells. After the reaction, the plate was washed four times with the PBST buffer. Thereafter, HRP (horseradish peroxidase)-labeled streptavidin (Trevigen Inc.) diluted 1,000-fold with the PBS buffer was added to each well, and the reaction was allowed to proceed at room temperature for 20 minutes. After the plate was washed four times with the PBST buffer, a chemiluminescent substrate solution TACS-Sapphire (Trevigen Inc.) was added to each well and the reaction was allowed to proceed at room temperature for 20 minutes. Then, the chemiluminescence intensity was measured using a chemiluminescence measuring apparatus.
# (§4) The residual enzyme activity in the presence of the test target compound was determined in accordance with the following formula. Based on the residual enzyme activity at multiple concentrations of the test target compound, an enzyme inhibition activity was calculated as a 50% inhibitory concentration (IC50 value) using data analysis software named Origin (LightStone Corp.).
# tankyrase 2 (TNKS 2) = biological target: T2, tankyrase 2 (TNKS 2) (Homo sapiens, UniProt Q9H2K2); experiment: Tankyrase inhibitory activity test (ELISA, self-polyADP ribosylation), tankyrase 2; assay type: biochemical; details: self-polyADP ribosylation
# T2 construct: 613-1, 116aa; made in house; host or cells: cell-free protein synthesis system
# Experimental: as §1, §2, §3, §4
# [1] = system: human colorectal cancer cell line, COLO-320DM; experiment: Cell proliferation inhibitory activity test (Celltiter-Glo Luminescent Cell Viability Assay); assay type: cell-based; details: COLO-320DM cells, 96 hours
# Experimental: (Test Example 2) Cell Proliferation Inhibitory Activity Test
# The cell proliferation inhibitory activity of the compound obtained in each of Examples against human colorectal cancer cell line, COLO-320DM was evaluated by Celltiter-Glo Luminescent Cell Viability Assay (Promega Corporation, G7573). The COLO-320 DM cells were cultured in a RPMI-1640 medium (Wako Pure Chemical Industries, Ltd., 189-02025) containing 10% fetal bovine serum and 2 mM of glutamine. The cultured cells were washed with PBS and then detached with trypsin/EDTA to prepare a cell solution containing 3×10^4 cells/mL.
# Next, the cell solution was seeded in a 96 well microplate (Thermo/Nunc, 136101) in an amount of 70 μL/well and was cultured overnight under conditions at 37° C. with 5% CO2. On the next day, 10 μL/well of a solution in which the test target compound (DMSO solution) was diluted with the cell culture medium (a final DMSO concentration of 1%) was added and the reaction was allowed to proceed under conditions at 37° C. with 5% CO2 for 96 hours (a 1% DMSO solution was used as a control). Subsequently, 80 μL/well of Celltiter-Glo Luminescent Cell Viability Assay reagent (Promega Corporation, G7573) was added, followed by agitation for 2 minutes with a shaker under shielding with aluminum foil. Thereafter, the resultant solution was allowed to stand for reaction at room temperature for 10 minutes.
# After that, the luminescent signal was measured with a luminometer (Biotech, Synergy). The cell proliferation inhibitory activity was evaluated by obtaining a percentage of a cell proliferation volume of each compound-added group with respect to a cell proliferation volume (100%) of a control group in which no test target component solution was added, and calculating a value of compound concentration (GI50) required to reduce the remaining cell volume to 50% of the remaining cell volume of the control. […] The results are shown in Tables 120 to 123 together with the results of the tankyrase inhibition activity test.
# [2] = tankyrase 1, ELISA, read-out: TNKS1 inhibitory activity (IC50 class)
# [3] = tankyrase 2, ELISA, read-out: TNKS2 inhibitory activity (IC50 class)
# [4] = read-out: COLO-320 DM cell proliferation inhibitory activity (GI50 class)
# [5] = ELISA, class symbols, read-out: TNKS1 (inhibitory activity against tankyrase 1, IC50 value)
# [6] = ELISA, class symbols, read-out: TNKS2 (inhibitory activity against tankyrase 2, IC50 value)
# [7] = class symbols, read-out: COLO-320 DM (cell proliferation inhibitory activity, GI50 value)
# T1 sequence (O95271 1024-1327): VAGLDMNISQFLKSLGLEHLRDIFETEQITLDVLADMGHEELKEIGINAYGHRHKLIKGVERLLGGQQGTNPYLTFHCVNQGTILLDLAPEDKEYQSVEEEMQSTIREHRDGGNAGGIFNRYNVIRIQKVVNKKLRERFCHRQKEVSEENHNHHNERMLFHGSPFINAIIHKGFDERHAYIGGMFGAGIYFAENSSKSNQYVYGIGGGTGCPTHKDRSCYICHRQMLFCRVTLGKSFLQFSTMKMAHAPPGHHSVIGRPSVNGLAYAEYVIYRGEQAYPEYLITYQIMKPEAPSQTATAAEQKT
# T2 sequence (Q9H2K2 613-1166): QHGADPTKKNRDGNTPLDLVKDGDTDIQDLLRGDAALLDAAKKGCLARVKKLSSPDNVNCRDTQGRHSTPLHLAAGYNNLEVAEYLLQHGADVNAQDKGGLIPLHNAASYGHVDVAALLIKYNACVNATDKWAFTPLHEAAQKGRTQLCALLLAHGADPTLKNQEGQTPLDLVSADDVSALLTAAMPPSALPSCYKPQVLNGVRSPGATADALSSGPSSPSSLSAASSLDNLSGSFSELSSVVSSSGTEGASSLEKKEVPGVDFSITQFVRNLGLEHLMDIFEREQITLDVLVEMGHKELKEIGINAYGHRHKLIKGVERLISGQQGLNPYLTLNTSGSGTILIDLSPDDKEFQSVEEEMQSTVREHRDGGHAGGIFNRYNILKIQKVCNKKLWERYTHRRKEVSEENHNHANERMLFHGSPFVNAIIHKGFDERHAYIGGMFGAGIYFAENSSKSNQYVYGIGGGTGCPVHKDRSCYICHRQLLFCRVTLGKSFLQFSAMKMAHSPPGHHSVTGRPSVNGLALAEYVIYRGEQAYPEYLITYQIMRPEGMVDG
Structure (SMILES),pIC50 (tankyrase 1 (TNKS 1); [2]),pIC50 (tankyrase 2 (TNKS 2); [3]),"GI50 [1, 4] [nM]",pIC50 (tankyrase 1 (TNKS 1); [5]),pIC50 (tankyrase 2 (TNKS 2); [6]),"GI50 [1, 7] [nM]"
"CN1CCCc2c1nc(N1CCC3(CC1)C(=O)Nc1cccc(F)c13)[nH]c2=O [Example 185, 2-(4-fluoro-2-oxospiro [indoline-3,4′-piperidin]-1′-yl)-8-methyl-5,6,7,8-tetrahydro-pyrido[2,3-d] pyrimidine-4(3H)-one]",> 7.70,> 7.70,100 to 600,,,
"CN1CCCc2c1nc(N1CCC3(CC1)C(=O)N(C)c1cc(N4CCN(S(C)(=O)=O)CC4)cc(F)c13)[nH]c2=O [Example 461, 4-fluoro-1-methyl-1′-(8-methyl-4-oxo-3,4,5,6,7,8-hexahydropyrido[2,3-d]pyrimidin-2-yl)-6-(4-methylsulfonylpiperazin-1-yl)spiro[indole-3,4′-piperidine]-2(1H)-one]",,,,> 7.70,> 7.70,< 100
"CCN1CCCc2c1nc(N1CCC3(CC1)C(=O)N(CCO)c1cc(F)cc(F)c13)[nH]c2=O [Example 382, 1′-(8-ethyl-4-oxo-3,4,5,6,7-hexahydropyrido-[2,3-d]pyrimidin-2-yl)-4,6-difluoro-1-(2-hy-droxyethyl)spiro [indoline-3,4′-piperidin]-2-one]",> 7.70,> 7.70,100 to 600,,,
"CN1CCN(CCOc2cc(F)c3c(c2)N(CC(F)(F)F)C(=O)C32CCN(c3nc4c(c(=O)[nH]3)CCCN4C)CC2)CC1 [Example 406, 4-fluoro-1′-(8-methyl-4-oxo-3,4,5,6,7,8-hex-ahydropyrido[2,3-d]pyrimidin-2-yl)-6-[2-(4-methylpiperazin-1-yl)ethoxy]-1-(2,2,2-trifluoroethyl)spiro [indoline-3,4′-piperidin]-2(1H)-one]",,,,6.70 to 7.70,6.70 to 7.70,< 100
"CN1CCCc2c1nc(N1CCC3(CC1)CN(Cc1cccnc1)c1cc(F)cc(F)c13)[nH]c2=O [Example 351, 2-[4,6-difluoro-1-(pyridin-3-ylmethyl)spiro [indoline-3,4′-piperi-dine]-1′-yl]-8-methyl-5,6,7,8-tetrahydro pyrido [2,3-d]pyrimidin-4(3H)-one]",6.70 to 7.70,> 7.70,100 to 600,,,
"CN1CCCc2c1nc(N1CCC3(CC1)C(=O)N(CCO)c1cc(OCCN4CCOCC4)cc(F)c13)[nH]c2=O [Example 386, 4-fluoro-1-(2-hydroxy-ethyl)-1′-(8-methyl-4-oxo-3,4,5,6,7,8-hexahydropyrido [2,3-d]pyrimidin-2-yl)-6-(2-morpholino-ethoxy)spiro [indoline-3,4′-piperidin]-2-one]",> 7.70,> 7.70,600 to 1000,,,
"CN1CCN(c2ccc(-c3cc(F)c4c(c3)C(=O)OC43CCN(c4nc5c(c(=O)[nH]4)CCCN5C)CC3)cc2)CC1 [Example 444, 4-fluoro-1′-(4-hy-droxy-8-methyl-6,7-dihydro-5H-pyrido [2,3-d]pyrimidin-2-yl)-6-[4-(4-meth-ylpiperazin-1-yl)phenyl]spiro[2-benzofuran-3,4′-piperidine]-1-one]",,,,6.70 to 7.70,6.70 to 7.70,100 to 600
"O=C1N(CC2CCCO2)c2cccc(F)c2C12CCN(c1nc3c(c(=O)[nH]1)CCCN3)CC2 (stereo not drawn) [Example 469, 4-fluoro-1′-(4-hydroxy-5,6,7,8-tetrahydroypyrido[2,3-d]pyrimidin-2-yl)-1-(oxolan-2-ylmethyl)spiro[indole-3,4′-piperidine]-2-one]",,,,6.70 to 7.70,> 7.70,100 to 600
"CC(=O)NS(=O)(=O)COc1cc(F)c2c(c1)N(C)C(=O)C21CCN(c2nc3c(c(=O)[nH]2)CCCN3C)CC1 [Example 456, N-[[4-fluoro-1-meth-yl-1′-(8-methyl-4-oxo-3,4,5,6,7,8-hexahydropyrido [2,3-d]pyrimidin-2-yl)-2-oxospiro [indole-3,4′-piperi-dine]-6-yl]oxymeth-ylsulfonyl]aceta-mide]",,,,> 7.70,> 7.70,100 to 600
"CN1CCCc2c1nc(N1CCC3(CC1)C(=O)N(C)c1cc(OCCCN4CCCC4)cc(F)c13)[nH]c2=O [Example 367, 4-fluoro-1-methyl-1′-(8-methyl-4-oxo-3,4,5,6,7,8-hexahydropy-rido[2,3-d]pyrimidin-2-yl)-6-[3-(pyrrolidin-1-yl)propoxy] spiro[indoline-3,4′-piperidin]-2-one]",> 7.70,> 7.70,100 to 600,,,
"CN(C)c1ccc(-c2cc(F)c3c(c2)C(=O)OC32CCN(c3nc4c(c(=O)[nH]3)CCCN4C)CC2)cc1 [Example 449, 6-[4-(dimethylami-no)phenyl]-4-fluoro-1′-(4-hydroxy-8-methyl-6,7-di-hydro-5H-pyrido[2,3-d]pyrimidin-2-yl)spiro[2-benzo-furan-3,4′-piperidine]-1-one]",,,,6.70 to 7.70,6.70 to 7.70,100 to 600
"CN1CCCc2c1nc(N1CCC3(CC1)C(=O)N(C)c1cc(N4CCC(C#N)CC4)cc(F)c13)[nH]c2=O [Example 467, 1-[4-fluoro-1-methyl-1′-(8-methyl-4-oxo-3,4,5,6,7,8-hexahydropyrido[2,3-]pyrimidin-2-yl)-2-oxospiro[indole-3,4′-piperidine]-6-yl]piperidine-4-carbonitrile]",,,,6.70 to 7.70,> 7.70,< 100
COCCN1C(=O)C2(CCN(c3nc4c(c(=O)[nH]3)CCCN4C)CC2)c2c(F)cc(N3CCNCC3)cc21 [Example 416],,,,> 7.70,> 7.70,100 to 600
"O=c1[nH]c(N2CCC3(CC2)CN(Cc2ccncc2)c2ccccc23)nc2c1CCCC2 [Example 100, 2-[1-(pyridin-4-ylmethyl)spiro[indoline-3,4′-piperidin]-1′-yl]-5,6,7,8-tetrahydroquinazolin-4(3H)-one]",> 7.70,6.70 to 7.70,600 to 1000,,,
"CCOC(=O)c1coc(-c2cc(Cl)c3c(c2)N(C)C(=O)C32CCN(c3nc4c(c(=O)[nH]3)CCCN4C)CC2)n1 [Example 328, 4-chloro-6-(4-ethoxy-carbonyl-oxazole-2-yl)-1-methyl-1′-(8-methyl-4-oxo-3,4,5,6,7,8-hexahydro-pyrido[2,3-d]-pyrimidin-2-yl)spiro-[indoline-3,4′-piperidin]-2-one]",6.70 to 7.70,> 7.70,100 to 600,,,
"O=C1N(Cc2cccnc2)c2cccc(Cl)c2C12CCN(c1nc3c(c(=O)[nH]1)CCCC3)CC2 [Example 226, 4-chloro-1′-(4-oxo-3,4,5,6,7,8-hexahydroquinazolin-2-yl)-1-(pyridin-3-ylmethyl) spiro [indoline-3,4′-piperidin]-2-one]",> 7.70,> 7.70,100 to 600,,,
